Test results: patent US10881642B2, “Autophagy enhancer and use thereof” (Industry-Academic Cooperation Foundation, Yonsei University, priority 2016, dated 2021)

System: ob/ob mice
Test: Metabolic profile of ob/ob mice
Type: in vivo
Protocol: FIG. 6A and FIG. 6B each indicates the fasting blood sugar and the body weights respectively from ob/ob mice which were treated with vehicle control or (50 mg/kg/2 days) for 8 weeks. FIG. 6C indicates the amount of feed intake from ob/ob mice which were treated with vehicle control or for 8 weeks. FIG. 6D and FIG. 6E each indicates the IPGTT results and AUC value measured after the 8 week administration. FIG. 6F and FIG. 6G indicates the ITT results and AUC value measured after the 8 week administration. FIG. 6H indicates the fasting blood sugar after the 8 week administration. FIG. 6I indicates the concentration of insulin after the 8 week administration. FIG. 6J indicate the result of HOMA-IR measured after the 8 week administration. FIG. 6K indicates the results the Insulinogenic index measured after the 8 week administration. Error bars, S.D. *, P<0.05; **, P<0.01; ***, P<0.001. Students t-test and one-way ANOVA.
FIG. 8A is the result of Hematoxylin-Eosin stained liver section from ob/ob mice treated with MSL compound or vehicle for 8 weeks. FIG. 8B is the result of measuring the concentration of TG using free glycerol reagent containing lipase in the lipid sample extracted using a mixture of chloroform/ethanol from the liver of ob/ob mice. FIG. 8C is the result of blood chemistry profile analyzed using chemical analyzer from serum sample obtained from ob/ob mice treated with MSL compound or vehicle for 8 weeks. FIG. 8D is the result of Hematoxylin-Eosin stained white adipose tissue section from ob/ob mice treated with MSL compound or vehicle for 8 weeks. FIG. 8E is the immuno-stained result of F4/80+ cells from white adipose tissue (left) and the quantification result of adipose cell F4/80+ CLS (right) indicated as a frequency of CLS (crown-like structures) in the white adipose tissue of the mice as described above. FIG. 8F is the result of quantifying the expression of WAT gene from the mice as described above using RT-PCR. Error bars, S.D. *, P<0.05; **, P<0.01; ***, P<0.001.
FIG. 11A is the result of fasting glucose concentration of ob/ob mice administered with vehicle control or MSL-7 (50 mg/kg/2 days) for 8 weeks. FIG. 11B is the body weight monitored of the mice of FIG. 11A. FIG. 11C is the result of experiments performed at 8 weeks after the administration of IPGTT (FIG. 1 IC) and ITT (FIG. 11D). FIG. 11E is the results of measuring blood chemistry profile of the ob/ob mice administered with vehicle control or MSL-7 compound for 8 weeks using chemical analyzer. Error bars, S.D. *, P<0.05; **, P<0.01; ***, P<0.001. Students t-test and one-way ANOVA. […]
We next studied whether MSL can activate autophagic flux in vivo. When we administered MSL after pretreatment with leupeptin (Ueno, T et al. (1991) Membrane markers of endoplasmic reticulum preserved in autophagic vacuolar membranes isolated from leupeptin-administered rat liver. J Biol Chem 266, 18995-18999), LC3-I to -II conversion was increased in the liver, supporting that MSL can increase autophagic flux in vivo. We next studied whether MSL administration can improve metabolic profile associated with obesity. We treated ob/ob mice with MSL at 50 mg/kg for 8 weeks.

Row | Compound | body weight (50 mg/kg, 8 weeks) | non-fasting blood glucose level (50 mg/kg, 8 weeks) | glucose tolerance (IPGTT) (8 weeks) | insulin sensitivity (ITT) (8 weeks) | Food intake (50 mg/kg, 8 weeks) | AUC of IPGTT and ITT (8 weeks) | Fasting blood glucose levels (8 weeks) | HOMA-IR index (8 weeks) | Serum ALT/ASL levels (8 weeks) | number of crown-like structures (CLSs) in WAT (8 weeks) | accumulation of lipid droplets in the liver (8 weeks, H&E) | expression of inflammatory markers (Tnfa, I-16, II-1β, F4/80), real-time RT-PCR (WAT, 8 weeks) | liver lipid content (Oil Red O staining) (data not shown)
1 | COc1oc(-c2ccccc2Cl)nc1S(=O)(=O)c1ccccc1 [MSL-7, 2-(2-chlorophenyl)-5-methoxy-4-(phenylsulfonyl) oxazole] | without significant effect on body weight | significantly improved | significantly improved | significantly improved | – | – | – | – | – | – | – | – | –
2 | CSc1oc(-c2ccccc2)nc1S(=O)(=O)c1ccc(F)cc1 [MSL] | not affected | significantly decreased | significant improvement | significant improvement | not affected | reduced | significantly improved | slightly decreased | significantly reduced | significantly decreased | apparently reduced | significantly reduced | decreased
